Experimental data as given in patent US11083725B2 (priority 2014, dated 2021).

Tested on: NHBE cells
Experiment: Biolog metabolic array: substrate use by NHBE cells with or without CA09 infection
Type: cell-based, human
Conditions: for Substrate use, 590 nm absorbance normalized to zero hour, 1 hr: Biolog PMM2, 1 hr; for Substrate use, 590 nm absorbance normalized to zero hour, 5 hr: Biolog PMM2, 5 hr; for Substrate use, 590 nm absorbance normalized to zero hour, 7 hr: Biolog PMM2, 7 hr; for Substrate use, 590 nm absorbance normalized to zero hour, 0 hr: Biolog PMM2, 0 hr
[1] = Control (uninfected) NHBE cells
[2] = Virus (CA09, MOI 1) infected NHBE cells
[3] = Virus (CA09-infected, MOI 1) NHBE cells

SMILES | 590 nm absorbance normalized to zero hour (substrate use), 1 hr [1] | 590 nm absorbance normalized to zero hour (substrate use), 2 hr [1] | 590 nm absorbance normalized to zero hour (substrate use), 3 hr [1] | 590 nm absorbance normalized to zero hour (substrate use), 4 hr [1] | 590 nm absorbance normalized to zero hour (substrate use), 6 hr [1] | 590 nm absorbance normalized to zero hour (substrate use), 8 hr [1] | 590 nm absorbance normalized to zero hour (substrate use), 9 hr [1] | 590 nm absorbance normalized to zero hour (substrate use), 10 hr [1] | 590 nm absorbance normalized to zero hour (substrate use), 11 hr [1] | Substrate use, 590 nm absorbance normalized to zero hour, 1 hr [1] | Substrate use, 590 nm absorbance normalized to zero hour, 5 hr [1] | Substrate use, 590 nm absorbance normalized to zero hour, 7 hr [1] | Substrate use, 590 nm absorbance normalized to zero hour, 1 hr [2] | Substrate use, 590 nm absorbance normalized to zero hour, 5 hr [2] | Substrate use, 590 nm absorbance normalized to zero hour, 7 hr [2] | 590 nm absorbance normalized to zero hour (substrate use), 1 hr [3] | 590 nm absorbance normalized to zero hour (substrate use), 2 hr [3] | 590 nm absorbance normalized to zero hour (substrate use), 3 hr [3] | 590 nm absorbance normalized to zero hour (substrate use), 4 hr [3] | 590 nm absorbance normalized to zero hour (substrate use), 6 hr [3] | other results
O=C[C@H](O)[C@@H](O)[C@@H](O)[C@H](O)CO [D-Galactose] | 0.95 | 1.46 | 1.73 | 1.56 | 1.78 | 2.22 | 2.53 | 2.67 | 2.53 | 0.95 | 1.88 | 2.03 | 0.91 | 1.89 | 2.16 | 0.91 | 1.21 | 1.47 | 1.60 | 2.03 | 590 nm absorbance normalized to zero hour (substrate use), 8 hr [3]: 2.29; 590 nm absorbance normalized to zero hour (substrate use), 9 hr [3]: 2.54; 590 nm absorbance normalized to zero hour (substrate use), 10 hr [3]: 2.63; 590 nm absorbance normalized to zero hour (substrate use), 11 hr [3]: 2.86
N[C@@H](C(=O)O)[C@@H](O)[C@H](O)[C@H](O)CO [D-Glucosaminic Acid] | 0.86 | 0.94 | 0.90 | 1.21 | 0.36 | 0.97 | 0.98 | 0.97 | 0.39 | 0.86 | 1.22 | 0.95 | 1.69 | 3.09 | 3.47 | 1.69 | 2.21 | 2.51 | 2.69 | 3.31 | 590 nm absorbance normalized to zero hour (substrate use), 0 hr [1]: 1.00; Substrate use, 590 nm absorbance normalized to zero hour, 0 hr [1]: 1.00; Substrate use, 590 nm absorbance normalized to zero hour, 0 hr [2]: 1.00; 590 nm absorbance normalized to zero hour (substrate use), 0 hr [3]: 1.00; 590 nm absorbance normalized to zero hour (substrate use), 8 hr [3]: 3.57; 590 nm absorbance normalized to zero hour (substrate use), 9 hr [3]: 3.89; 590 nm absorbance normalized to zero hour (substrate use), 10 hr [3]: 3.88; 590 nm absorbance normalized to zero hour (substrate use), 11 hr [3]: 3.32
O=P(O)(O)O[C@H]1O[C@H](CO)[C@@H](O)[C@H](O)[C@H]1O [D-Glucose-1-Phosphate] | 1.01 | 1.31 | 1.24 | 1.16 | 0.33 | 1.03 | 1.09 | 1.06 | 0.93 | 1.01 | 1.12 | 1.10 | 1.74 | 3.94 | 4.56 | 1.74 | 2.39 | 2.86 | 3.20 | 4.34 | 590 nm absorbance normalized to zero hour (substrate use), 0 hr [1]: 1.00; Substrate use, 590 nm absorbance normalized to zero hour, 0 hr [1]: 1.00; Substrate use, 590 nm absorbance normalized to zero hour, 0 hr [2]: 1.00; 590 nm absorbance normalized to zero hour (substrate use), 0 hr [3]: 1.00; 590 nm absorbance normalized to zero hour (substrate use), 8 hr [3]: 4.91; 590 nm absorbance normalized to zero hour (substrate use), 9 hr [3]: 5.77; 590 nm absorbance normalized to zero hour (substrate use), 10 hr [3]: 5.49; 590 nm absorbance normalized to zero hour (substrate use), 11 hr [3]: 6.50
O=C[C@H](O)[C@@H](O)[C@H](O)[C@H](O)COP(=O)(O)O [D-Glucose-6-Phosphate] | 1.14 | 1.18 | 3.24 | 1.30 | 0.74 | 1.28 | 1.38 | 2.69 | 1.87 | 1.14 | 1.48 | 2.93 | 2.01 | 4.92 | 5.87 | 2.01 | 3.00 | 3.61 | 4.04 | 5.47 | 590 nm absorbance normalized to zero hour (substrate use), 8 hr [3]: 6.35; 590 nm absorbance normalized to zero hour (substrate use), 9 hr [3]: 7.41; 590 nm absorbance normalized to zero hour (substrate use), 10 hr [3]: 7.21; 590 nm absorbance normalized to zero hour (substrate use), 11 hr [3]: 5.87
O=C[C@H](O)[C@@H](O)[C@H](O)[C@H](O)C(=O)O [D-Glucuronic Acid] | 1.13 | 1.37 | 1.29 | 1.42 | 0.86 | 1.83 | 1.90 | 2.04 | 2.34 | 1.13 | 1.57 | 1.71 | 1.44 | 2.79 | 3.14 | 1.44 | 1.90 | 2.18 | 2.37 | 2.96 | 590 nm absorbance normalized to zero hour (substrate use), 8 hr [3]: 3.24; 590 nm absorbance normalized to zero hour (substrate use), 9 hr [3]: 3.62; 590 nm absorbance normalized to zero hour (substrate use), 10 hr [3]: 3.66; 590 nm absorbance normalized to zero hour (substrate use), 11 hr [3]: 3.99
